Source: patent US20230183259A1, “Crystal Form Of Thiofuran Pyridazine Compound, Preparation Method Therefor And Application Thereof” (ZHEJIANG MEDICINE CO., LTD. XINCHANG PHARMACEUTICAL FACTORY, priority 2020, published 2023)

How the values were obtained:
Assay type in all cases: physicochemical
long-term stability test [1] = conditions: 36 months, temperature 25° C. ±2° C.; relative humidity 60%±5%
[2] = acceleration test (stability); conditions: relative humidity 75%±5%; for (%) Impurity B (%) / Crystal form / appearance / Enantiomer (%) / Impurity A (%) / Impurity C (%) / Loss on drying (%) / Single largest impurity (%) / Total relevant substances (%) / content(%): 40° C.±2° C.
Method: (§1) Stability tests were performed on the samples of Examples 1, 2, 3, 4 and 5. […] Please refer to the results of the acceleration test (40° C.±2° C., relative humidity 75%±5%) of Table 1 and the results of the long-term stability test (25° C.±2° C., relative humidity 60%±10%) of Table 2.

long-term stability test [3] = conditions: 25° C.±2° C., relative humidity 60%±10%
Method: as §1

(S)-2-(4-fluorophenyl)-4-(piperidine-3-aminomethyl)thieno[2,3-d]pyridazine-7-carboxamide hydrochloride [Example 1]
changes in moisture, related substances, optical isomers and contents under storage conditions (long-term stability test [1]): no significant changes
changes in moisture, related substances, optical isomers and contents under storage conditions ([2]; 6 months, temperature 40° C.±2° C.): no significant changes

(S)-2-(4-fluorophenyl)-4-(piperidine-3-aminomethyl)thieno[2,3-d]pyridazine-7-carboxamide hydrochloride [Example 110601-2]
(%) Impurity B (%) ([2]; 0 month): 0.00%
Crystal form ([2]; 0 month): unchanged
appearance ([2]; 0 month): yellow crystalline powder
Enantiomer (%) ([2]; 0 month, hydrochloride): 0.09%
Impurity A (%) ([2]; 0 month, hydrochloride): 0.32%
Impurity C (%) ([2]; 0 month, hydrochloride): 0.02%
Loss on drying (%) ([2]; 0 month, hydrochloride): 7.3%
Single largest impurity (%) ([2]; 0 month, hydrochloride): 0.02%
Total relevant substances (%) ([2]; 0 month, hydrochloride): 0.42%
content(%) ([2]; 0 month, hydrochloride): 98.7%
Crystal form ([2]; 1 month): unchanged
Impurity C (%) ([2]; 1 month): 0.02%
appearance ([2]; 1 month): yellow crystalline powder
(%) Impurity B (%) ([2]; 1 month, hydrochloride): 0.03%
Enantiomer (%) ([2]; 1 month, hydrochloride): 0.12%
Impurity A (%) ([2]; 1 month, hydrochloride): 0.28%
Loss on drying (%) ([2]; 1 month, hydrochloride): 7.3%
Single largest impurity (%) ([2]; 1 month, hydrochloride): 0.03%
Total relevant substances (%) ([2]; 1 month, hydrochloride): 0.42%
content(%) ([2]; 1 month, hydrochloride): 99.5%
Crystal form ([2]; 2 months): unchanged
appearance ([2]; 2 months): yellow crystalline powder
(%) Impurity B (%) ([2]; 2 months, hydrochloride): 0.04%
Enantiomer (%) ([2]; 2 months, hydrochloride): 0.1%
Impurity A (%) ([2]; 2 months, hydrochloride): 0.31%
Impurity C (%) ([2]; 2 months, hydrochloride): 0.03%
Loss on drying (%) ([2]; 2 months, hydrochloride): 7.2%
Single largest impurity (%) ([2]; 2 months, hydrochloride): 0.02%
Total relevant substances (%) ([2]; 2 months, hydrochloride): 0.44%
content(%) ([2]; 2 months, hydrochloride): 99.1%
(%) Impurity B (%) ([2]; 3 months): 0.00%
Crystal form ([2]; 3 months): unchanged
Impurity C (%) ([2]; 3 months): 0.02%
appearance ([2]; 3 months): yellow crystalline powder
Enantiomer (%) ([2]; 3 months, hydrochloride): 0.09%
Impurity A (%) ([2]; 3 months, hydrochloride): 0.25%
Loss on drying (%) ([2]; 3 months, hydrochloride): 7.3%
Single largest impurity (%) ([2]; 3 months, hydrochloride): 0.02%
Total relevant substances (%) ([2]; 3 months, hydrochloride): 0.34%
content(%) ([2]; 3 months, hydrochloride): 99.9%
(%) Impurity B (%) ([2]; 6 months): 0.00%
Crystal form ([2]; 6 months): unchanged
Impurity C (%) ([2]; 6 months): 0.02%
appearance ([2]; 6 months): yellow crystalline powder
Enantiomer (%) ([2]; 6 months, hydrochloride): 0.07%
Impurity A (%) ([2]; 6 months, hydrochloride): 0.25%
Loss on drying (%) ([2]; 6 months, hydrochloride): 7.2%
Single largest impurity (%) ([2]; 6 months, hydrochloride): 0.02%
Total relevant substances (%) ([2]; 6 months, hydrochloride): 0.33%
content(%) ([2]; 6 months, hydrochloride): 100.1%
Crystal form (long-term stability test [3]; 0 month): unchanged
ImpurityB(%) (long-term stability test [3]; 0 month): 0.00%
Content (calculated by dried product )(%) (long-term stability test [3]; 0 month, hydrochloride): 98.7%
Enantiomers (%) (long-term stability test [3]; 0 month, hydrochloride): 0.09%
ImpurityA(%) (long-term stability test [3]; 0 month, hydrochloride): 0.32%
ImpurityC(%) (long-term stability test [3]; 0 month, hydrochloride): 0.02%
Loss on drying (%) (long-term stability test [3]; 0 month, hydrochloride): 7.3%
Single largest impurity (%) (long-term stability test [3]; 0 month, hydrochloride): 0.02%
Total relevant substances (%) (long-term stability test [3]; 0 month, hydrochloride): 0.42%
appearance (long-term stability test [3]; 0 month, hydrochloride): yellow crystalline
Crystal form (long-term stability test [3]; 3 months): unchanged
ImpurityB(%) (long-term stability test [3]; 3 months): 0.00%
ImpurityC(%) (long-term stability test [3]; 3 months): 0.02%
Content (calculated by dried product )(%) (long-term stability test [3]; 3 months, hydrochloride): 99.8%
Enantiomers (%) (long-term stability test [3]; 3 months, hydrochloride): 0.09%
ImpurityA(%) (long-term stability test [3]; 3 months, hydrochloride): 0.30%
Loss on drying (%) (long-term stability test [3]; 3 months, hydrochloride): 7.3%
Single largest impurity (%) (long-term stability test [3]; 3 months, hydrochloride): 0.03%
Total relevant substances (%) (long-term stability test [3]; 3 months, hydrochloride): 0.39%
appearance (long-term stability test [3]; 3 months, hydrochloride): yellow crystalline
Crystal form (long-term stability test [3]; 6 months): unchanged
ImpurityB(%) (long-term stability test [3]; 6 months): 0.00%
Content (calculated by dried product )(%) (long-term stability test [3]; 6 months, hydrochloride): 99.7%
Enantiomers (%) (long-term stability test [3]; 6 months, hydrochloride): 0.07%
ImpurityA(%) (long-term stability test [3]; 6 months, hydrochloride): 0.25%
ImpurityC(%) (long-term stability test [3]; 6 months, hydrochloride): 0.02%
Loss on drying (%) (long-term stability test [3]; 6 months, hydrochloride): 7.2%
Single largest impurity (%) (long-term stability test [3]; 6 months, hydrochloride): 0.02%
Total relevant substances (%) (long-term stability test [3]; 6 months, hydrochloride): 0.34%
appearance (long-term stability test [3]; 6 months, hydrochloride): yellow crystalline
Crystal form (long-term stability test [3]; 9 months): unchanged
ImpurityC(%) (long-term stability test [3]; 9 months): 0.02%
Content (calculated by dried product )(%) (long-term stability test [3]; 9 months, hydrochloride): 99.6%
Enantiomers (%) (long-term stability test [3]; 9 months, hydrochloride): 0.08%
ImpurityA(%) (long-term stability test [3]; 9 months, hydrochloride): 0.27%
ImpurityB(%) (long-term stability test [3]; 9 months, hydrochloride): 0.02%
Loss on drying (%) (long-term stability test [3]; 9 months, hydrochloride): 7.3%
Single largest impurity (%) (long-term stability test [3]; 9 months, hydrochloride): 0.02%
Total relevant substances (%) (long-term stability test [3]; 9 months, hydrochloride): 0.38%
appearance (long-term stability test [3]; 9 months, hydrochloride): yellow crystalline
Crystal form (long-term stability test [3]; 12 months): unchanged
ImpurityB(%) (long-term stability test [3]; 12 months): 0.01%
Single largest impurity (%) (long-term stability test [3]; 12 months): 0.02%
Content (calculated by dried product )(%) (long-term stability test [3]; 12 months, hydrochloride): 99.7%
Enantiomers (%) (long-term stability test [3]; 12 months, hydrochloride): 0.07%
ImpurityA(%) (long-term stability test [3]; 12 months, hydrochloride): 0.26%
ImpurityC(%) (long-term stability test [3]; 12 months, hydrochloride): 0.03%
Loss on drying (%) (long-term stability test [3]; 12 months, hydrochloride): 7.4%
Total relevant substances (%) (long-term stability test [3]; 12 months, hydrochloride): 0.36%
appearance (long-term stability test [3]; 12 months, hydrochloride): yellow crystalline
Crystal form (long-term stability test [3]; 18 months): unchanged
ImpurityB(%) (long-term stability test [3]; 18 months): 0.00%
Single largest impurity (%) (long-term stability test [3]; 18 months): 0.02%
Content (calculated by dried product )(%) (long-term stability test [3]; 18 months, hydrochloride): 100.7%
Enantiomers (%) (long-term stability test [3]; 18 months, hydrochloride): 0.07%
ImpurityA(%) (long-term stability test [3]; 18 months, hydrochloride): 0.30%
ImpurityC(%) (long-term stability test [3]; 18 months, hydrochloride): 0.02%
Loss on drying (%) (long-term stability test [3]; 18 months, hydrochloride): 7.2%
Total relevant substances (%) (long-term stability test [3]; 18 months, hydrochloride): 0.36%
appearance (long-term stability test [3]; 18 months, hydrochloride): yellow crystalline
Crystal form (long-term stability test [3]; 24 months): unchanged
Enantiomers (%) (long-term stability test [3]; 24 months): 0.08%
ImpurityB(%) (long-term stability test [3]; 24 months): 0.00%
ImpurityC(%) (long-term stability test [3]; 24 months): 0.02%
Single largest impurity (%) (long-term stability test [3]; 24 months): 0.02%
Content (calculated by dried product )(%) (long-term stability test [3]; 24 months, hydrochloride): 99.1%
ImpurityA(%) (long-term stability test [3]; 24 months, hydrochloride): 0.30%
Loss on drying (%) (long-term stability test [3]; 24 months, hydrochloride): 7.2%
Total relevant substances (%) (long-term stability test [3]; 24 months, hydrochloride): 0.37%
appearance (long-term stability test [3]; 24 months, hydrochloride): yellow crystalline
Crystal form (long-term stability test [3]; 36 months): unchanged
ImpurityC(%) (long-term stability test [3]; 36 months): 0.02%
Single largest impurity (%) (long-term stability test [3]; 36 months): 0.02%
Content (calculated by dried product )(%) (long-term stability test [3]; 36 months, hydrochloride): 99.5%
Enantiomers (%) (long-term stability test [3]; 36 months, hydrochloride): 0.06%
ImpurityA(%) (long-term stability test [3]; 36 months, hydrochloride): 0.31%
ImpurityB(%) (long-term stability test [3]; 36 months, hydrochloride): 0.02%
Loss on drying (%) (long-term stability test [3]; 36 months, hydrochloride): 7.2%
Total relevant substances (%) (long-term stability test [3]; 36 months, hydrochloride): 0.43%
appearance (long-term stability test [3]; 36 months, hydrochloride): yellow crystalline
